# What was measured:
# [1] = tested on: LNCaP cells (human prostate tumor cell line); experiment: Akt LNCaP proliferation assay (MTS); type: cell-based; conditions: 48 hours
# In short: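 Cells plated at 10,000/well in RPMI with 2% FBS overnight at 37° C., 5% CO2, then exposed to compound at 1000 nM to 0.5 nM (3-fold dilutions) for 48 hours. Viable cells measured by MTS colorimetric read-out after 2 hours; IC50 taken as concentration giving 50% inhibition of total proliferation.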
# Full length Akt3 = biological target: T1, Full length Akt3 (Homo sapiens, UniProt Q9Y243); experiment: In vitro Akt kinase enzymatic assay (HTRF), Akt3; type: biochemical; conditions: 0.6 nM Akt3, substrate solution with 5 mM ATP, 25° C. 1 hr
# T1 construct: Full length Akt1 (cat #P2999), Akt2 (cat #PV3184), Akt3 (cat #PV3185); purchased PerkinElmer PV3185
# T1 sequence (Q9Y243 whole entry): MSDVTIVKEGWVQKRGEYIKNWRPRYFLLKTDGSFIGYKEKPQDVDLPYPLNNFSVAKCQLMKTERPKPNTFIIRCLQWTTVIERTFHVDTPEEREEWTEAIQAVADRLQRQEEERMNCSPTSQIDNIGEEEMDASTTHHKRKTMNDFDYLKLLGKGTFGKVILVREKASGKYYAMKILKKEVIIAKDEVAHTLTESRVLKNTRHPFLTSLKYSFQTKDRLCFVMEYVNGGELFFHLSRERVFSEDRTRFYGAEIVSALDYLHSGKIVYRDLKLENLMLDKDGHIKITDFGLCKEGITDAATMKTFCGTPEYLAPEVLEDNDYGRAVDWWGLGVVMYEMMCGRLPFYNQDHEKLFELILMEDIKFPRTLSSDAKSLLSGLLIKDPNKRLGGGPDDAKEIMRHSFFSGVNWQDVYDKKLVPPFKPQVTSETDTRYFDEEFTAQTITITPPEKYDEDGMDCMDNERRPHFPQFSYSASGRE
# In short: (§1)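 Full-length enzyme (0.4 nM Akt1 or 0.6 nM Akt2/Akt3 in the enzyme solution) was combined with a substrate solution of 0.1 μM ULight-Crosstide plus 5 mM ATP in pH 7.8 HEPES/MgCl2/DTT/Tween20 buffer and reacted 1 hr at 25° C. The EDTA stop contained Eu anti-phospho-Crosstide; IC50 was fitted from 11-point HTRF inhibition curves.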
# Full length PKA = biological target: T2, Full length PKA (Homo sapiens, UniProt P17612); experiment: PKA in vitro enzymatic assay (HTRF); type: biochemical; conditions: 0.035 nM enzyme solution, substrate solution with 5 mM ATP, 25° C. 1 hr
# T2 construct: Full length PKA (cat #P2912); purchased Invitrogen P2912
# In short: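 IC50 came from curve fitting of percent inhibition across an 11-point, 3-fold compound series, with HTRF read after EDTA quench and Tb-labelled p-S133 antibody detection. Enzyme (0.035 nM solution) and substrate (0.1 μM fluorescein-CREBtide solution containing 5 mM ATP) reacted for 1 h at 25°C. The buffer was HEPES 50 mM pH 7.8 with 10 mM MgCl2, 5 mM DTT and 0.005% Tween20.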
# Full length Akt1 = biological target: T3, Full length Akt1 (Homo sapiens, UniProt P31749); experiment: In vitro Akt kinase enzymatic assay (HTRF), Akt1; type: biochemical; conditions: 0.4 nM Akt1, substrate solution with 5 mM ATP, 25° C. 1 hr
# T3 construct: Full length Akt1 (cat #P2999); purchased PerkinElmer P2999
# T3 sequence (P31749 whole entry): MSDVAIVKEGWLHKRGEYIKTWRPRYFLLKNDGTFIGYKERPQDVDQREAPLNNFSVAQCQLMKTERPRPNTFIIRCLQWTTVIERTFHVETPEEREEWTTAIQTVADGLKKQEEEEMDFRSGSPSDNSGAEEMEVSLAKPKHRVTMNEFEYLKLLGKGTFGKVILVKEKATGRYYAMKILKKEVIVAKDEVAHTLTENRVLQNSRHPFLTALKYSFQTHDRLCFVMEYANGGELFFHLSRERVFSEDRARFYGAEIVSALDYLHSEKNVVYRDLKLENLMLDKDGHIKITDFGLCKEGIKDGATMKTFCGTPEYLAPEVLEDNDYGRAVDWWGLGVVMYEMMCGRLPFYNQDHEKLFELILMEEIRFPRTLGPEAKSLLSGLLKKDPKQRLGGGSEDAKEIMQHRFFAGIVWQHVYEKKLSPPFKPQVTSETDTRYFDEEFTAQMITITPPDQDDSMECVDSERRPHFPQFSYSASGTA
# In short: as §1
# Full length Akt2 = biological target: T4, Full length Akt2 (Homo sapiens, UniProt P31751); experiment: In vitro Akt kinase enzymatic assay (HTRF), Akt2; type: biochemical; conditions: 0.6 nM Akt2, substrate solution with 5 mM ATP, 25° C. 1 hr
# T4 construct: Full length Akt1 (cat #P2999), Akt2 (cat #PV3184); purchased PerkinElmer PV3184
# T4 sequence (P31751 whole entry): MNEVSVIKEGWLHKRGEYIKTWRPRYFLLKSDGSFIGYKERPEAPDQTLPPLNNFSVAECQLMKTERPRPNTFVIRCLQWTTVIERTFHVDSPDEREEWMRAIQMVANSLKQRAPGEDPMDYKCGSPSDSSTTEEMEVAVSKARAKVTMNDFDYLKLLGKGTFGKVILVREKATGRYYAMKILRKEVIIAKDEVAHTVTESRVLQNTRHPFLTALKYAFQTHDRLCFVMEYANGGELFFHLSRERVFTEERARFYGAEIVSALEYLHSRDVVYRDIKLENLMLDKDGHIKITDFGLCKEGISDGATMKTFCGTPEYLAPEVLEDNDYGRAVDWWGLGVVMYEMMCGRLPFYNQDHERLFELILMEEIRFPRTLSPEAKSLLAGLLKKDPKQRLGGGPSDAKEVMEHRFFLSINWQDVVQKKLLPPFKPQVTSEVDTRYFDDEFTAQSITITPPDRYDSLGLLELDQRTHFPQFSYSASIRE
# In short: as §1
# [2] = 2% fetal bovine serum, class symbols
# [3] = given as a bound, final concentrations 1000 nM to 0.5 nM
SMILES,"IC50 [1, 2] [nM]",IC50 (Full length Akt3) [nM],IC50 (Full length PKA) [nM],IC50 (Full length Akt1) [nM],IC50 (Full length Akt2) [nM],"IC50 [1, 3] [nM]"
"Cn1ncc(Br)c1-c1cc2c(cn1)C(=O)N([C@H](CN)Cc1cc(F)cc(F)c1)C2 [Example 104, 2-[(1S)-2-amino-1-(3,5-difluoro-benzyl)ethyl]-6-(4-broro-1-methyl-1H-pyrazol-5-yl)-1,2-dihydro-3H-pyrrolo[3,4-c]pyridin-3-one]",< 500,< 500,500 to 5000,< 500,< 500,–
"COCc1cnn(C)c1-c1cc2c(cn1)C(=O)N([C@H](CN)Cc1cc(F)cc(F)c1)C2 [Example 105, 2-[(1S)-2-amino-1-(3,5-difluoro-benzyl)ethyl]-6-(4-methoxymethyl-1-methyl-1H-pyrazol-5-yl)-1,2-dihydro-3H-pyrrolo[3,4-c]pyridin-3-one]",500 to 5000,< 500,> 5000,< 500,500 to 5000,–
"CC(C)OCc1cnn(C)c1-c1cc2c(cn1)C(=O)N([C@H](CN)Cc1cc(F)cc(F)c1)C2 [Example 106, 2-[(1S)-2-amino-1-(3,5-difluoro-benzyl)ethyl]-6-[4-(2-propoxy-methyl)-1-methyl-1H-pyrazol-5-yl]-1,2-dihydro-3H-pyrrolo[3,4-c]pyridin-3-one]",< 500,< 500,> 5000,< 500,< 500,–
"CCCOCc1cnn(C)c1-c1cc2c(cn1)C(=O)N([C@H](CN)Cc1cc(F)cc(F)c1)C2 [Example 107, 2-[(1S)-2-amino-1-(3,5-difluoro-benzyl)ethyl]-6-[4-(1-propoxy-methyl)-1-methyl-1H-pyrazol-5-yl]-1,2-dihydro-3H-pyrrolo[3,4-c]pyridin-3-one]",< 500,< 500,> 5000,< 500,< 500,–
"Cn1ncc(COC2CCC2)c1-c1cc2c(cn1)C(=O)N([C@H](CN)Cc1cc(F)cc(F)c1)C2 [Example 108, 2-[(1S)-2-amino-1-(3,5-difluoro-benzyl)ethyl]-6-[4-(cyclobutoxy-methyl)-1-methyl-1H-pyrazol-5-yl]-1,2-dihydro-3H-pyrrolo[3,4-c]pyridin-3-one]",< 500,< 500,500 to 5000,< 500,< 500,–
"Cn1nccc1-c1ccc2c(c1)CN([C@@H](CN)c1ccccc1)C2=O [Example 116, 2-[(1R)-2-amino-1-phenylethyl]-5-(1-methyl-1H-pyrazol-5-yl)isoindolin-1-one]",< 500,500 to 5000,500 to 5000,< 500,< 500,–
"Cn1nccc1-c1ccc2c(c1)CN(C(CN)c1cccc(F)c1)C2=O (centres unmarked) [Example 117, 2-[2-amino-1-(3-fluorophenyl)ethyl]-5-(1-methyl-1H-pyrazol-5-yl)isoindolin-1-one]",< 500,500 to 5000,500 to 5000,< 500,< 500,–
"CCn1nccc1-c1ccc2c(c1)CN([C@H](CN)Cc1cccc(F)c1)C2=O [Example 127, 2-[(1S)-2-amino-1-(3-fluorobenzyl)ethyl]-5-(1-ethyl-1H-pyrazol-5-yl)isoindolin-1-one]",< 500,< 500,> 5000,< 500,< 500,–
"CCn1nccc1-c1ccc2c(c1)CN([C@H](CN)Cc1cc(F)cc(F)c1)C2=O [Example 128, 2-[(1S)-2-amino-1-(3,5-difluorobenzyl)ethyl]-5-(1-ethyl-1H-pyrazol-5-yl)isoindolin-1-one]",< 500,< 500,> 5000,< 500,< 500,–
"CC(C)Cn1nccc1-c1ccc2c(c1)CN([C@H](CN)Cc1cccc(F)c1)C2=O [Example 129, 2-[(1S)-2-amino-1-(3-fluorobenzyl)ethyl]-5-(1-isobutyl-1H-pyrazol-5-yl)isoindolin-1-one]",–,> 5000,> 5000,500 to 5000,> 5000,> 1000
"CC(C)Cn1nccc1-c1ccc2c(c1)CN([C@H](CN)Cc1cc(F)cc(F)c1)C2=O [Example 130, 2-[(1S)-2-amino-1-(3,5-difluorobenzyl)ethyl]-5-(1-isobutyl-1H-pyrazol-5-yl)isoindolin-1-one]",–,> 5000,> 5000,500 to 5000,> 5000,> 1000
"Cn1nccc1-c1ccc2c(c1)CN([C@H](CN)CC1CCCCC1)C2=O [Example 131, 2-[(1S)-2-amino-1-(cyclohexylmethyl)ethyl]-5-(1-methyl-1H-pyrazol-5-yl)isoindolin-1-one]",< 500,< 500,500 to 5000,< 500,< 500,–
"Cn1ncc(Cl)c1-c1ccc2c(c1)CN([C@H](CN)CC1CCCCC1)C2=O [Example 132, 2-[(1S)-2-amino-1-(cyclohexylmethyl)ethyl]-5-(4-chloro-1-methyl-1H-pyrazol-5-yl)isoindolin-1-one]",< 500,< 500,500 to 5000,< 500,< 500,–
"COCc1cnn(C)c1-c1ccc2c(c1)CN([C@H](CN)CC1CCCCC1)C2=O [Example 133, 2-[(1S)-2-amino-1-(cyclohexylmethyl)ethyl]-5-[4-(methoxymethyl)-1-methyl-1H-pyrazol-5-yl]isoindolin-1-one]",500 to 5000,500 to 5000,> 5000,< 500,500 to 5000,–
"Cn1nccc1-c1cc2c(cn1)C(=O)N([C@H](CN)CC1CCCCC1)C2 [Example 134, 2-[(1S)-2-amino-1-(cyclohexylmethyl)ethyl]-6-(1-methyl-1H-pyrazol-5-yl)-1,2-dihydro-3H-pyrrolo[3,4-c]pyridin-3-one]",< 500,< 500,< 500,< 500,< 500,–
"Cn1ncc(Cl)c1-c1cc2c(cn1)C(=O)N([C@H](CN)CC1CCCCC1)C2 [Example 135, 2-[(1S)-2-amino-1-(cyclohexylmethyl)ethyl]-6-(4-chloro-1-methyl-1H-pyrazol-5-yl)-1,2-dihydro-3H-pyrrolo[3,4-c]pyridin-3-one]",< 500,< 500,500 to 5000,< 500,< 500,–
